Results on two molecules are retold here after ChEMBL document CHEMBL1201862, “PubChem BioAssay data set” (2004).

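Cultured in 96-well plates, cells were exposed to test compound for 48 hours across five concentrations. GI50 marks 50% less growth.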 The source made the active and inactive calls. Rule as the data show it: active = GI50 up to about 1.1 µM and inactive = higher. Bounds are passed on as bounds.

Among the test systems are KM12; NCI-H460; DU-145; HCT-15; SN12C; SF-268; COLO 205; LOX IMVI; MCF7; SW-620; UO-31; EKVX; RPMI-8226; HCC 2998; M19-MEL; ACHN; HOP-92; OVCAR-5; MDA-MB-231; SF-539.
Common to all, as to experiment: NCI tumour cell line growth inhibition, 48 h

Take `O=C1CCCC2=C(N1)C(=O)C=CC2=O`: the GI50 was 25.6 µM (inactive) in the assay on KM12; 45.3 µM (inactive) in the assay on NCI-H460; 17.5 µM (inactive) in the assay on DU-145; 42.2 µM in the assay with HCT-15; 29.2 µM (inactive) in the assay with SN12C; 46.2 µM (inactive) with SF-268. Also, the GI50 with COLO 205 was 23.8 µM (inactive); in the assay on LOX IMVI, > 53.5 µM (inactive); with MCF7, 18.8 µM (inactive); in the assay with SW-620, 23.1 µM (inactive); with UO-31 it was 43.7 µM (inactive); with EKVX, 34.4 µM (inactive). The GI50 in the assay with RPMI-8226 is 23.9 µM (inactive); in the assay with HCC 2998, 60.8 µM (inactive); with M19-MEL, > 100 µM (inactive); in the assay with ACHN it was 40.6 µM (inactive); in the assay with HOP-92, 22.2 µM (inactive); in the assay on OVCAR-5, 33.4 µM (inactive). Further, the figures for the GI50 with MDA-MB-231 and in the assay on SF-539 were 16.7 µM (inactive) and 44.4 µM (inactive), respectively.
With `COc1cc(C2c3cc4c(cc3[C@@H](Nc3ccc([N+](=O)[O-])cc3)C3COC(=O)[C@H]23)OCO4)cc(OC)c1O` (some centres undefined), the GI50 in the assay with KM12 was 2.56 µM (inactive); in the assay on NCI-H460, 0.0286 µM (active); in the assay with DU-145, 0.362 µM (active); in the assay on HCT-15 it was 2.87 µM; in the assay with SN12C, 0.853 µM (active); in the assay with SF-268, 2.01 µM (inactive). Moreover, the GI50 in the assay with COLO 205 is 3.79 µM (inactive); in the assay with LOX IMVI it was 0.459 µM (active); in the assay with MCF7, 0.615 µM (active); in the assay with SW-620, 1.5 µM (inactive); with UO-31, 1.52 µM (inactive); in the assay with EKVX, 3.37 µM (inactive). In addition, the GI50 in the assay on RPMI-8226 was 0.525 µM (active); in the assay on HCC 2998, 2.99 µM (inactive); in the assay with M19-MEL it was 3.06 µM (inactive); with ACHN, 0.25 µM (active); in the assay with HOP-92, 1.78 µM (inactive); with OVCAR-5 it was 2.69 µM (inactive). Moreover, the GI50 in the assay with SF-539 is 0.92 µM (active).
